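Five concentrations, 48 hours, 96-well plates. At the GI50, growth is halved. TGI marks complete inhibition of growth.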
Key:
Test in all cases: NCI-60 cell line screen, 48 h
[1] = system: HOP-62 NSCLC
[2] = system: COLO 205 colon
[3] = system: SF-268 CNS
[4] = system: IGROV1 ovarian
[5] = system: SNB-75 CNS
[6] = system: MCF7 breast
[7] = system: SN12C renal
[8] = system: A549 NSCLC
[9] = system: CAKI-1 renal
[10] = system: RXF 393 renal

Compound | TGI [1] [µM] | TGI [2] [µM] | TGI [3] [µM] | TGI [4] [µM] | TGI [5] [µM] | TGI [6] [µM] | TGI [7] [µM] | TGI [8] [µM] | TGI [9] [µM] | TGI [10] [µM] | GI50 [1] [µM] | GI50 [2] [µM] | GI50 [3] [µM] | GI50 [4] [µM] | GI50 [5] [µM] | GI50 [6] [µM] | GI50 [7] [µM] | GI50 [8] [µM] | GI50 [9] [µM] | GI50 [10] [µM]
O=C1c2ccccc2C2(c3ccc(F)cc3)NCCN12 (configuration not stated) | > 100 | > 100 | > 100 | > 100 | > 100 | > 100 | > 100 | > 100 | > 100 | > 100 | – | – | – | – | – | – | – | – | – | –
COC(=O)c1c2c(cc3c1CC1(Cc4cc5c(c(C)c4C1)CCC5)C3)CCC2 (configuration not stated) | > 100 | – | > 100 | > 100 | – | > 100 | – | > 100 | > 100 | > 100 | – | – | – | – | – | – | – | – | – | –
O=Nc1c(-c2c(O)[nH]c3ccc(I)cc23)[nH]c2ccccc12 | > 30.8 | > 100 | 25.9 | 8.51 | 20.7 | > 19.9 | 17.9 | > 30.4 | > 100 | 3.81 | – | – | – | – | – | – | – | – | – | –
O=C1C=CC(=O)c2c(O)c(N3CCOCC3)c(Cl)c(O)c21 | 2.36 | 0.395 | 3.19 | 1.21 | 2.04 | 0.486 | 0.425 | 3.85 | 1.27 | 0.464 | – | – | – | – | – | – | – | – | – | –
COC(=O)C1C(=O)CC(C)(O)C(C(=O)OC)C1c1ccc(N(C)C)cc1 (configuration not stated) | > 100 | > 100 | > 100 | > 100 | > 100 | > 100 | > 100 | > 100 | > 100 | > 100 | – | – | – | – | – | – | – | – | – | –
CSc1nnc(SCc2nn3c(=O)cc(C)nc3s2)s1 | > 100 | > 100 | > 100 | > 100 | > 100 | > 100 | > 100 | > 100 | > 100 | > 100 | – | – | – | – | – | – | – | – | – | –
Cc1c(OCc2cccc3ccccc23)ccc2c(=O)cc(SCCN3CCOCC3)oc12 | > 100 | > 100 | > 100 | > 100 | > 100 | > 100 | > 100 | > 100 | > 100 | > 100 | – | – | – | – | – | – | – | – | – | –
Cc1nc2ccc(Br)cc2c(=O)n1-c1ccc(N)cc1 | > 100 | > 100 | > 100 | > 100 | > 100 | > 100 | > 100 | > 100 | > 100 | 81.8 | – | – | – | – | – | – | – | – | – | –
O=C(Nc1ccc(-n2cc(-c3ccncc3)c(-c3ccc(O)c(Cl)c3)n2)cc1)c1ccc(Cl)c(C(F)(F)F)c1 | > 50 | 26 | > 50 | > 50 | > 50 | > 50 | > 50 | > 50 | 14.7 | 1.64 | 2.31 | 7.67 | 2.79 | 15.6 | 2.23 | 2.4 | 2.57 | 2.09 | 2.05 | 0.717
COc1ccc(OC)c2c(C)ccnc12 | > 60.9 | > 83.3 | > 97.2 | > 66.4 | > 100 | > 100 | > 100 | 97.7 | > 100 | > 100 | – | – | – | – | – | – | – | – | – | –

From PubChem BioAssay (NCI)
